Test results published in patent US6737383B1, “Herbicidal oxadiazolidines” (priority 1999, dated 2004).

Key:
blackgrass = test: Test B pre/postemergence blackgrass; type: in vivo, Alopecurus myosuroides
How it was run: (§1)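 Herbicidal effect was estimated by eye on a ten-point control scale after plants spent twelve to sixteen days in a greenhouse following soil or foliar treatment. Foliar sprays targeted plants at one to four leaves; all doses were formulated in a non-phytotoxic solvent with surfactant.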

giant foxtail = test: Test B pre/postemergence giant foxtail; type: in vivo, Setaria faberii
How it was run: as §1

velvetleaf = test: Test B pre/postemergence velvetleaf; type: in vivo, Abutilon theophrasti; conditions: for Plant response rating, Velvetleaf: Rate 250 g/ha
How it was run: as §1

sugar beet = test: Test B pre/postemergence sugar beet; type: in vivo, Beta vulgaris; conditions: for Plant response rating, Sugarbeets: Rate 250 g/ha
How it was run: as §1

pigweed = test: Test B pre/postemergence pigweed; type: in vivo, Amaranthus retroflexus
How it was run: as §1

rice = test: Test B flood test rice; type: in vivo, Oryza sativa
How it was run: (§2)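 Each value is a visual injury score relative to controls, with 10 meaning complete control and 0 no effect. Evaluation took place twelve to sixteen days after the 2-leaf-stage plants were treated and kept in the greenhouse.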

rape = test: Test B pre/postemergence rape; type: in vivo, Brassica napus
How it was run: as §1

morningglory = test: Test B pre/postemergence morningglory; type: in vivo, Ipomoea hederacea
How it was run: as §1

bedstraw = test: Test B pre/postemergence bedstraw; type: in vivo, Galium aparine
How it was run: as §1

bamyardgrass = test: Test B flood test barnyardgrass; type: in vivo, Echinochloa crus-galli
How it was run: as §2

soybean = test: Test B pre/postemergence soybean; type: in vivo, Glycine max
How it was run: as §1

purple nutsedge = test: Test B pre/postemergence purple nutsedge; type: in vivo, Cyperus rotundus
How it was run: as §1

smallflower flatsedge = test: Test B flood test smallflower flatsedge; type: in vivo, Cyperus difformis
How it was run: as §2

corn = test: Test B pre/postemergence corn; type: in vivo, Zea mays
How it was run: as §1

duck salad = test: Test B flood test duck salad; type: in vivo, Heteranthera limosa
How it was run: as §2

surinam grass = test: Test B pre/postemergence surinam grass; type: in vivo, Brachiaria decumbens
How it was run: as §1

[1] = Postemergence, Rate 62 g/ha, scale 0 to 10, 0 is no effect, 10 is complete control
[2] = Postemergence, Rate 125 g/ha, scale of 0 to 10 where 0 is no effect and 10 is complete control
[3] = Postemergence, Rate 250 g/ha, scale 0 to 10, 0 no effect, 10 complete control
[4] = Preemergence, Rate 62 g/ha, scale 0 to 10 (0 no effect, 10 complete control)
[5] = Preemergence, Rate 125 g/ha, scale 0 to 10 (0 no effect, 10 complete control)
[6] = Preemergence, Rate 250 g/ha, scale of 0 to 10 where 0 is no effect and 10 is complete control
[7] = Preemergence, Rate 500 g/ha, scale 0 (no effect) to 10 (complete control)
[8] = Rate 500 g/ha, Postemergence, scale 0 to 10, 0 no effect, 10 complete control
[9] = Preemergence, Rate 125 g/ha, 0 is no effect, 10 is complete control
[10] = Preemergence, scale of 0 to 10 where 0 is no effect and 10 is complete control
[11] = Postemergence, scale 0 to 10, 0 is no effect, 10 is complete control
[12] = Rate 250 g/ha, Postemergence, scale 0 to 10, 0 is no effect, 10 is complete control
[13] = Postemergence (flood test species), Rate 125 g/ha, scale of 0 to 10 where 0 is no effect and 10 is complete control
[14] = Rate 250 g/ha, Postemergence (flood test), scale 0 to 10, 0 is no effect, 10 is complete control
[15] = Rate 500 g/ha, listed under Postemergence (flood test species), scale 0 to 10, 0 no effect, 10 complete control
[16] = Rate 125 g/ha, Postemergence, scale 0 to 10, 0 no effect, 10 complete control
[17] = flood test, listed under Postemergence, Rate 250 g/ha, scale 0 to 10, 0 no effect, 10 complete control

Cc1nn(C)c(Cl)c1-n1c(=O)on(C(=O)N(c2ccc(F)cc2)C(C)C)c1=O [Compound 95]
Blackgrass plant response rating (blackgrass; [1]): 0
Blackgrass plant response rating (blackgrass; [2]): 0
Blackgrass plant response rating (blackgrass; [3]): 4
Blackgrass plant response rating (blackgrass; [4]): 0
Plant response rating, Blackgrass (blackgrass; [5]): 2
Plant response rating, Blackgrass (blackgrass; [6]): 4
Blackgrass plant response rating (blackgrass; [7]): 6
Blackgrass plant response rating (blackgrass; [8]): 5
Giant foxtail plant response rating (giant foxtail; [1]): 0
Giant foxtail plant response rating (giant foxtail; [2]): 0
Giant foxtail plant response rating (giant foxtail; [3]): 1
Giant foxtail plant response rating (giant foxtail; [4]): 2
Plant response rating, Giant foxtail (giant foxtail; [5]): 4
Plant response rating, Giant foxtail (giant foxtail; [6]): 7
Giant foxtail plant response rating (giant foxtail; [7]): 8
Giant foxtail plant response rating (giant foxtail; [8]): 6
Velvetleaf plant response rating (velvetleaf; [1]): 0
Velvetleaf plant response rating (velvetleaf; [2]): 0
Velvetleaf plant response rating (velvetleaf; [4]): 0
Velvetleaf plant response rating (0 to 10 scale) (velvetleaf; [9]): 0
Plant response rating, Velvetleaf (velvetleaf; [10]): 0
Velvetleaf plant response rating (velvetleaf; [7]): 0
Plant response rating, Velvetleaf (velvetleaf; [11]): 0
Velvetleaf plant response rating (velvetleaf; [8]): 0
Sugarbeets plant response rating (sugar beet; [1]): 2
Sugarbeets plant response rating (sugar beet; [2]): 2
Sugarbeets plant response rating (sugar beet; [4]): 0
Sugarbeets plant response rating (0 to 10 scale) (sugar beet; [9]): 1
Plant response rating, Sugarbeets (sugar beet; [10]): 2
Sugarbeets plant response rating (sugar beet; [7]): 3
Plant response rating, Sugarbeets (sugar beet; [11]): 4
Sugarbeets plant response rating (sugar beet; [8]): 4
Redroot pigweed plant response rating (pigweed; [1]): 2
Redroot pigweed plant response rating (pigweed; [2]): 3
Redroot pigweed plant response rating (pigweed; [4]): 5
Plant response rating, Redroot pigweed (pigweed; [5]): 6
Plant response rating, Redroot pigweed (pigweed; [6]): 9
Redroot pigweed plant response rating (pigweed; [7]): 9
Plant response rating, Redroot pigweed (pigweed; [12]): 3
Redroot pigweed plant response rating (pigweed; [8]): 5
Rice plant response rating (rice; [13]): 0
Rice plant response rating (rice; [1]): 0
Plant response rating, Rice (rice; [14]): 2
Rice plant response rating (rice; [15]): 4
Rape plant response rating (rape; [1]): 0
Rape plant response rating (rape; [2]): 0
Rape plant response rating (rape; [3]): 0
Rape plant response rating (rape; [4]): 0
Plant response rating, Rape (rape; [5]): 0
Plant response rating, Rape (rape; [6]): 3
Rape plant response rating (rape; [7]): 3
Rape plant response rating (rape; [8]): 0
Morningglory plant response rating (morningglory; [1]): 1
Morningglory plant response rating (morningglory; [2]): 1
Morningglory plant response rating (morningglory; [3]): 2
Morningglory plant response rating (morningglory; [4]): 0
Plant response rating, Morningglory (morningglory; [5]): 0
Plant response rating, Morningglory (morningglory; [6]): 0
Morningglory plant response rating (morningglory; [7]): 0
Morningglory plant response rating (morningglory; [8]): 8
Bedstraw plant response rating (bedstraw; [1]): 0
Bedstraw plant response rating (bedstraw; [3]): 0
Bedstraw plant response rating (bedstraw; [4]): 0
Plant response rating, Bedstraw (bedstraw; [5]): 0
Plant response rating, Bedstraw (bedstraw; [6]): 0
Bedstraw plant response rating (bedstraw; [7]): 0
Bedstraw plant response rating (bedstraw; [16]): 0
Bedstraw plant response rating (bedstraw; [8]): 2
Barnyardgrass plant response rating (bamyardgrass; [1]): 0
Barnyardgrass plant response rating (bamyardgrass; Rate 125 g/ha, Postemergence section (flood test species), scale 0 to 10, 0 no effect, 10 complete control): 0
Barnyardgrass plant response rating (bamyardgrass; [15]): 4
Barnyardgrass plant response rating (bamyardgrass; [17]): 0
Soybean plant response rating (soybean; [1]): 1
Soybean plant response rating (soybean; [2]): 1
Soybean plant response rating (soybean; [4]): 0
Plant response rating, Soybean (soybean; [5]): 0
Plant response rating, Soybean (soybean; [6]): 0
Soybean plant response rating (soybean; [7]): 0
Plant response rating, Soybean (soybean; [12]): 1
Soybean plant response rating (soybean; [8]): 1
Nutsedge plant response rating (purple nutsedge; [1]): 0
Nutsedge plant response rating (purple nutsedge; [2]): 0
Nutsedge plant response rating (purple nutsedge; [3]): 0
Nutsedge plant response rating (purple nutsedge; [4]): 0
Plant response rating, Nutsedge (purple nutsedge; [5]): 0
Plant response rating, Nutsedge (purple nutsedge; [6]): 0
Nutsedge plant response rating (purple nutsedge; [7]): 0
Nutsedge plant response rating (purple nutsedge; [8]): 0
S. Flatsedge plant response rating (smallflower flatsedge; [13]): 0
S. Flatsedge plant response rating (smallflower flatsedge; [1]): 0
Plant response rating, S. Flatsedge (smallflower flatsedge; [14]): 0
S. Flatsedge plant response rating (smallflower flatsedge; [15]): 5
Corn plant response rating (corn; [1]): 0
Corn plant response rating (corn; [2]): 0
Corn plant response rating (corn; [3]): 0
Corn plant response rating (corn; [4]): 0
Plant response rating, Corn (corn; [5]): 0
Plant response rating, Corn (corn; [6]): 0
Corn plant response rating (corn; [7]): 0
Corn plant response rating (corn; [8]): 0
Ducksalad plant response rating (duck salad; [13]): 0
Ducksalad plant response rating (duck salad; [1]): 0
Ducksalad plant response rating (duck salad; [15]): 0
Ducksalad plant response rating (duck salad; [17]): 0
B. signalgrass plant response rating (surinam grass; [1]): 0
B. signalgrass plant response rating (surinam grass; [3]): 3
B. signalgrass plant response rating (surinam grass; [4]): 0
Plant response rating, B. signalgrass (surinam grass; [5]): 0
Plant response rating, B. signalgrass (surinam grass; [6]): 3
B. signalgrass plant response rating (surinam grass; [7]): 7
B. signalgrass plant response rating (surinam grass; [16]): 0
B. signalgrass plant response rating (surinam grass; Rate 500 g/ha, Postemergence, scale of 0 to 10 where 0 is no effect and 10 is complete control): 5
